Source: article PMC8330742, “New benzothieno[2,3-c]pyridines as non-steroidal CYP17 inhibitors: design, synthesis, anticancer screening, apoptosis induction, and in silico ADME profile studies” (Journal of Enzyme Inhibition and Medicinal Chemistry, 2021)
Read-outs that look alike come from different tables or passages of the source.

Columns and labels:
A498 = experiment: NCI-60 SRB screen; type: cell-based, human; conditions: Homo sapiens, single dose 10^−5 M, read-out: Growth inhibition (%)
PC-3 = experiment: NCI-60 SRB screen; type: cell-based, human; conditions: Homo sapiens, single dose 10^−5 M, read-out: Growth inhibition (%)
OVCAR-5 = experiment: NCI-60 SRB screen; type: cell-based, human; conditions: Homo sapiens, single dose 10^−5 M, read-out: Growth inhibition (%)
LOX IMVI = experiment: NCI-60 SRB screen; type: cell-based, human; conditions: Homo sapiens, single dose 10^−5 M, read-out: Growth inhibition (%)
T-47D = experiment: NCI-60 SRB screen; type: cell-based, human; conditions: Homo sapiens, T47D, single dose 10^−5 M, read-out: Growth inhibition (%)
BT-549 = experiment: NCI-60 SRB screen; type: cell-based, human; conditions: Homo sapiens, single dose 10^−5 M, read-out: Growth inhibition (%)
HCC-2998 = experiment: NCI-60 SRB screen; type: cell-based, human; conditions: Homo sapiens, single dose 10^−5 M, read-out: Growth inhibition (%)
MDA-MB-468 = experiment: NCI-60 SRB screen; type: cell-based, human; conditions: Homo sapiens, single dose 10^−5 M, read-out: Growth inhibition (%)
RPMI-8226 = experiment: NCI-60 SRB screen; type: cell-based; conditions: Homo sapiens, single dose 10^−5 M, read-out: Growth inhibition (%)
DU-145 = experiment: NCI-60 SRB screen; type: cell-based, human; conditions: Homo sapiens, single dose 10^−5 M, read-out: Growth inhibition (%)
MCF7 = experiment: NCI-60 SRB screen; type: cell-based, human; conditions: Homo sapiens, read-out: Growth inhibition (%)
MDA-MB-231/ATCC = experiment: NCI-60 SRB screen; type: cell-based, human; conditions: Homo sapiens, single dose 10^−5 M, read-out: Growth inhibition (%)
U251 = experiment: NCI-60 SRB screen; type: cell-based, human; conditions: Homo sapiens, U-251; single dose 10^−5 M; U251, CNS cancer; read-out: Growth inhibition (%)
SF-539 = experiment: NCI-60 SRB screen; type: cell-based, human; conditions: Homo sapiens; single dose 10^−5 M; SF-539, CNS cancer; read-out: Growth inhibition (%)
SNB-19 = experiment: NCI-60 SRB screen; type: cell-based; conditions: Homo sapiens; single dose 10^−5 M; SNB-19, CNS cancer; read-out: Growth inhibition (%)
SNB-75 = experiment: NCI-60 SRB screen; type: cell-based, human; conditions: Homo sapiens; single dose 10^−5 M; SNB-75, CNS cancer; read-out: Growth inhibition (%)
[1] = single dose 10^−5 M, MCF-7, Breast cancer

| SMILES | inhibition at 10 µM (A498; A498) | inhibition at 10 µM (PC-3; PC-3) | melting point | inhibition at 10 µM (OVCAR-5; OVCAR-5) | inhibition at 10 µM (LOX IMVI) | inhibition at 10 µM (T-47D) | inhibition at 10 µM (BT-549; BT-549) | inhibition at 10 µM (HCC-2998; HCC-2998) | inhibition at 10 µM (MDA-MB-468; MDA-MB-468) | inhibition at 10 µM (RPMI-8226; RPMI-8226) | inhibition at 10 µM (DU-145; DU-145) | inhibition at 10 µM (MCF7; MCF-7, single dose 10^−5 M) | inhibition at 10 µM (MDA-MB-231/ATCC; MDA-MB-231, MDAMB231/ATCC) | inhibition at 10 µM (A498; A498, Renal cancer) | inhibition at 10 µM (U251) | inhibition at 10 µM (PC-3; PC-3, Prostate cancer) | inhibition at 10 µM (SF-539) | inhibition at 10 µM (OVCAR-5; OVCAR-5, Ovarian cancer) | inhibition at 10 µM (LOX IMVI; Melanoma) | inhibition at 10 µM (T-47D; Breast cancer) | other results |
| --- | --- | --- | --- | --- | --- | --- | --- | --- | --- | --- | --- | --- | --- | --- | --- | --- | --- | --- | --- | --- | --- |
| O=C1NC(c2cccc([N+](=O)[O-])c2)c2sc3c(F)cccc3c2C1Cl (stereo not drawn) [Compound 4d, 4-Chloro-8-fluoro-1-(3-nitrophenyl)-1,2-dihydro[1]benzothieno[2,3-c] pyridine-3(4H)-one] | -0.03% | 3.8% | 160 to 162 °C | -3.92% | 5.22% | 8.7% | 3.62% | -15.9% | -8.27% | 9.61% | -8.57% | 8.44% | 5.22% |  |  |  |  |  |  |  |  |
| N#CC1C(=O)NC(c2cccc([N+](=O)[O-])c2)c2sc3c(F)cccc3c21 (stereo not drawn) [Compound 5d, 4-Cyano-8-fluoro-1-(3-nitrophenyl)-1,2-dihydro[1]benzothieno[2,3-c] pyridin-3(4H)-one] | 17.3% | 13.2% | 180 to 182 °C | 1.54% | 17.4% | 20.1% | 8.35% | -14.2% | -6.48% | 14% | -10% | 15.1% | 19.2% |  |  |  |  |  |  |  |  |
| CCN1CCN(C2C(=O)NC(c3cccc([N+](=O)[O-])c3)c3sc4c(F)cccc4c32)CC1 (stereo not drawn) [Compound 6a, 4-(4-Ethylpiperazin-1-yl)-8-fluoro-1-(3-nitrophenyl)-1,2-dihydro[1]benzo thieno[2,3-c]pyridin-3(4H)-one] | 0.35% | 9.37% | 240 to 241 °C | -3.55% | -2.53% | -1.25% | -0.58% | -18.1% | -7.69% | 4.93% | -10.8% | 0.6% | -0.79% |  |  |  |  |  |  |  |  |
| O=C1NC(c2cccc([N+](=O)[O-])c2)c2sc3c(F)cccc3c2C1N1CCOCC1 (stereo not drawn) [Compound 6b, 8-Fluoro-4-morpholino-1(3-nitrophenyl)-1,2-dihydro[1]benzothieno[2,3-c]pyridin-3(4H)-one] | 13.5% | 10.4% | 250 to 251 °C | -6.35% | -0.6% | 15.4% | 1.66% | -9.62% | -3.26% | 14.4% | -9.4% | 10.3% | 7.92% |  |  |  |  |  |  |  |  |
| O=C1NC(c2cccc([N+](=O)[O-])c2)c2sc3c(F)cccc3c2C1N1CCCCC1 (stereo not drawn) [Compound 6c, 8-Fluoro-1-(3-nitrophenyl)-4-(piperidin-1-yl)-1,2-dihydro[1]benzothieno [2,3-c]pyridin-3(4H)-one] | 7.34% | 8.67% |  | -1.56% | 2.5% | 8.12% | 1.61% | 2.82% | -9.31% | 5.15% | -9.9% | 10.2% | 0.28% |  |  |  |  |  |  |  |  |
| O=[N+]([O-])c1cccc(C2NC(Cl)=C(Cl)c3c2sc2c(F)cccc32)c1 (stereo not drawn) [Compound 7a, 3,4-Dichloro-8-fluoro-1-(3-nitrophenyl)-1,2-dihydro[1]benzothieno[2,3-c] pyridine] | 3.36% | 3.11% | 120 to 122 °C | 3.21% | 1.24% | 17.7% | 0.77% | -16.1% | -4.71% | 11.5% | -4.75% | 5.05% | 8.09% |  |  |  |  |  |  |  |  |
| CCN1CCN(C2=C(Cl)c3c(sc4c(F)cccc34)C(c3cccc([N+](=O)[O-])c3)N2)CC1 (stereo not drawn) [Compound 8a, 4-Chloro-3–(4-ethylpiperzin-1-yl)-8-fluoro-1-(3-nitrophenyl)-1,2-dihydro [1]benzothieno[2,3-c]pyridine] |  |  |  |  |  |  |  |  |  |  |  |  |  | 0.93% | 6.16% | 7.7% | 4.31% | 1.9% | 6.7% | 11.1% | inhibition at 10 µM (BT-549; BT-549, Breast cancer): 9.38%; inhibition at 10 µM (HCC-2998; HCC-2998, Colon cancer): -2.53%; inhibition at 10 µM (MDA-MB-468; MDA-MB-468, Breast cancer): -9.64%; inhibition at 10 µM (SNB-19): 1.26%; inhibition at 10 µM (RPMI-8226; RPMI-8226, Leukaemia): 15.4%; inhibition at 10 µM (DU-145; DU-145, Prostate cancer): -7.24%; inhibition at 10 µM (SNB-75): 11.8%; inhibition at 10 µM (MCF7; [1]): 4.08%; inhibition at 10 µM (MDA-MB-231/ATCC; MDA-MB 231/ATCC, Breast cancer): 12% |
| CCN1CCN(C2=C(C#N)c3c(sc4c(F)cccc34)C(c3cccc([N+](=O)[O-])c3)N2)CC1 (stereo not drawn) [Compound 8d, 4-Cyano-3-(4-ethylpiperazin-1-yl)-8-fluoro-1-(3-nitrophenyl)-1,2-dihydro [1]benzothieno[2,3-c]pyridine] |  |  |  |  |  |  |  |  |  |  |  |  |  | 12.1% | 0.9% | 9.1% | 6.11% | -4.1% | 4.73% | 22.3% | inhibition at 10 µM (BT-549; BT-549, Breast cancer): 1.51%; inhibition at 10 µM (HCC-2998; HCC-2998, Colon cancer): -12.2%; inhibition at 10 µM (MDA-MB-468; MDA-MB-468, Breast cancer): -2.69%; inhibition at 10 µM (SNB-19): -1.27%; inhibition at 10 µM (RPMI-8226; RPMI-8226, Leukaemia): 1.72%; inhibition at 10 µM (DU-145; DU-145, Prostate cancer): -11.2%; inhibition at 10 µM (SNB-75): 8.49%; inhibition at 10 µM (MCF7; [1]): 9.44%; inhibition at 10 µM (MDA-MB-231/ATCC; MDA-MB 231/ATCC, Breast cancer): 19.8% |
| N#CC1=C(N2CCOCC2)NC(c2cccc([N+](=O)[O-])c2)c2sc3c(F)cccc3c21 (stereo not drawn) [Compound 8e, 4-Cyano-3-(4-morpholino)-8-fluoro-1-(3-nitrophenyl)-1,2-dihydro [1]benzothieno[2,3-c]pyridine] |  |  |  |  |  |  |  |  |  |  |  |  |  | 3.17% | -2.2% | 12.3% | 3.33% | 0.99% | 3.9% | -4.79% | inhibition at 10 µM (BT-549; BT-549, Breast cancer): 1.14%; inhibition at 10 µM (HCC-2998; HCC-2998, Colon cancer): -8.91%; inhibition at 10 µM (MDA-MB-468; MDA-MB-468, Breast cancer): -11%; inhibition at 10 µM (SNB-19): -0.92%; inhibition at 10 µM (RPMI-8226; RPMI-8226, Leukaemia): 6.66%; inhibition at 10 µM (DU-145; DU-145, Prostate cancer): -12.3%; inhibition at 10 µM (SNB-75): 7.28%; inhibition at 10 µM (MCF7; [1]): -1.68%; inhibition at 10 µM (MDA-MB-231/ATCC; MDA-MB 231/ATCC, Breast cancer): 13.4% |
| N#CC1=C(Nc2ccccc2F)NC(c2cccc([N+](=O)[O-])c2)c2sc3c(F)cccc3c21 (stereo not drawn) [Compound 10, 4-Cyano-8-fluoro-3((2-fluorophenyl)amino)-1–(3-nitrophenyl)-1,2-dihydro[1]benzothieno[2,3-c]pyridine] |  |  |  |  |  |  |  |  |  |  |  |  |  | 3.94% | -9.9% | 7.8% | 6.04% | -3.49% | 3.26% | -2.94% | inhibition at 10 µM (BT-549; BT-549, Breast cancer): 1.04%; inhibition at 10 µM (HCC-2998; HCC-2998, Colon cancer): -20.3%; inhibition at 10 µM (MDA-MB-468; MDA-MB-468, Breast cancer): -7.35%; inhibition at 10 µM (SNB-19): -3.45%; inhibition at 10 µM (RPMI-8226; RPMI-8226, Leukaemia): 1.46%; inhibition at 10 µM (DU-145; DU-145, Prostate cancer): -8.61%; inhibition at 10 µM (SNB-75): 10.1%; inhibition at 10 µM (MCF7; [1]): 4.92%; inhibition at 10 µM (MDA-MB-231/ATCC; MDA-MB 231/ATCC, Breast cancer): 17.4% |
